Here are results for one compound from ChEMBL document CHEMBL2321755 (Bioorg Med Chem, 2013).

This series is described as follows: Efflux ratio of permeability in human Caco2 cells after 2 hrs. It is filed as ADME, cell-based. The settings on record: Caco-2. Background: Passage across Caco-2 layers is used to estimate intestinal permeability.

As to `Cc1ccc(Cc2c(O[C@@H]3O[C@H](CO)[C@@H](O)[C@H](O)[C@H]3O)n[nH]c2C(C)C)c(C)c1`, the efflux ratio at 2 h worked out at 0.092.

One may read the efflux ratio as a quotient of directional permeabilities that is used to spot active efflux.
